# Results published in a melting point compilation (Tetko et al.; mined from patent text by program, amines drawn as free bases though some values may be those of a salt).
row,SMILES,melting point [°C]
1,CCOC(C(=O)O)N1CCN2c3ccccc3Cc3ccccc3C2C1 (centres undefined),105 to 108
2,CCOC(=O)c1c(N)sc(N)c1C(=O)OCC,155 to 158
3,CC(=O)N1CCN=C1Nc1cc(C)nn1-c1ccccc1,153 to 162
4,C[C@H](NS(=O)(=O)c1ccc(-c2c(C#N)c3cc(C(F)(F)F)cnc3n2-c2ccccc2)nc1)C(F)(F)F,186 to 188
5,Cc1c(O)cccc1C(=O)N[C@@H](Cc1ccccc1)[C@H](O)C(=O)N1CSC(C)(C)[C@H]1C(=O)N[C@@H](C)c1ccccc1,114 to 115
6,O=S(=O)(Nc1ccc2c(OCc3nc(-c4ccc(F)cc4)no3)cccc2c1)C(F)(F)F,131 to 132
7,COc1cc(C(C#N)O[Si](C)(C)C(C)(C)C)cc(OC)c1OC (centres undefined),43
8,CC(C)(C)c1ccc(C(=O)Nc2cn3nc(NC4CCCC4)ccc3n2)cc1,272 to 273
9,COc1cccc2c(=O)n3nc(C(=O)n4ccnc4)cc3[nH]c12,295 to 300
10,Cc1c(-c2c(F)cc(Cl)c(=O)n2C)nn(C)c1C#N,190 to 191
11,CC(C)(C)COc1c(NCCCBr)c(=O)c1=O,111 to 113
12,CCC1C(C)=NN=C(c2ccc(OC)c(O)c2)c2cc(O)c(OC)cc21 (centres undefined),143 to 145
13,CC(C)N1CCN(Cc2cc(NC(=O)Nc3ccc(Oc4cc(Cl)ncn4)cc3)cc(C(F)(F)F)c2)CC1,101
14,ON1CCC2(CC1)OC(c1ccccc1)c1ccccc12 (centres undefined),184 to 187
15,COc1cc2c(cc1-c1c(C)nn(C)c1C)-c1c(-c3cccs3)c3c(n1CC2)C(=O)N(C(C)C)CCNC3,250 to 252
16,O=C(O)c1ccc(-c2ccc3nnn(Cc4ccc5ncccc5c4)c3n2)cc1,245 to 247
17,Brc1ccc(SC2CCN(C(c3ccccc3)(c3ccccc3)c3ccccc3)CC2)cc1,174 to 175
18,CCCn1nc(-c2ccc(OC(=O)CC(C)(C)C)c(F)c2)c2cccc(Cl)c21,58 to 59

row,SMILES,melting point [°C]
1,O=c1cc(-c2ccccc2)n(-c2ccccc2)c(-c2ccccc2)c1C(F)(F)F,222 to 225
2,CO[C@@H](C(=O)N[C@H]1CC[C@@H](OC(=O)Cc2ccc(Cl)c(Cl)c2)CNC1=O)[C@H](O)[C@@H](O)[C@H](O)/C=C/C(C)(C)C,132 to 136
3,O=c1[nH]cc(-c2cccc(Cl)c2)c2ncccc12,252
4,Cc1ccccc1Nc1c([N+](=O)[O-])cnc2ccccc12,137 to 138
5,CCOC(=O)C1=C(C)NC(C)=C(C(=O)OCC)C1c1c(Cl)cccc1Cl,134 to 135
6,CC(COc1c(-c2ccccc2)c(=O)oc2ccccc12)CN1CCCCC1 (centres undefined),86 to 87
7,Cc1cc(Cl)cc(OC2=NS(=O)(=O)CS2)c1,151
8,COc1ccc(CCNc2nc(C)c(CCO)c(=O)[nH]2)cc1,180
9,CN(C)C=CC(=O)c1ccncc1,114 to 116
10,CC(Oc1cccc(Cl)c1)c1ccnc2ncnn12 (centres undefined),124 to 126
11,NC(CC(c1ccccc1)c1ccccc1)(C(=O)O)C1CC(C(=O)O)(C(=O)O)C1 (centres undefined),182 to 185
12,CCC(CC)O[C@@H]1C=C(C(=O)O)C[C@H](CC2CO2)[C@H]1NC(C)=O (some centres undefined),115 to 116
13,O=C(CCc1ccc(I)cc1)Cn1ccnc1,124 to 125
14,CSc1ccc2c(c1)N(CCCN1CCC(C(O)F)CC1c1ccccc1)c1ccccc1S2 (centres undefined),60
15,O=[N+]([O-])C=Cc1cnc2c(OCc3ccccc3)cccn12,204
16,C=CC(=O)OCCOC(=O)Cc1cc(O)n2ncnc2n1,108 to 109
17,O=C1CCCCCC1c1ncc[nH]1 (centres undefined),68 to 69
18,CC(C)(C)C(O)(CCC1CCCCC1)Cn1cncn1 (centres undefined),63 to 67

# More lines, now with the values ahead:
row,melting point [°C],SMILES
1,216,O=C(O)c1cnn2c(C(F)F)cc(-c3ccc(C(F)(F)F)c(Cl)c3)nc12
2,249 to 251,CC1(C)OC(=S)Nc2ccc(-c3cc(Cl)cc(C#N)c3)cc21
3,259 to 261,CCOC(=O)c1cn2c3c(c(Cl)ccc3c1=O)N(C)CC2C (centres undefined)
4,187 to 188,COC(=O)C(C#N)=Cc1cc(-n2c(=O)cc(C(F)(F)F)n(C)c2=O)ccc1Cl
5,84 to 85,CCOC(=O)C=Cc1cccc(N)c1
6,144 to 145,O=C(N[C@H](Cc1ccc(C(F)(F)F)cc1)[C@@H](O)c1ccc(F)cc1)c1cccc(Oc2ccccc2)c1 (racemic)
7,266,CCn1c(N)c(C(=O)NC)c(=O)c2ccc(-c3ccc(CC(=O)Nc4ccccn4)nc3)nc21
8,159,CCCCCCCCC(Cc1cccnc1)(C(=O)O)S(=O)(=O)c1ccc(OC)cc1 (centres undefined)
9,138 to 141,CC[C@H](Nc1nc(Nc2cccc(NS(C)(=O)=O)c2)nc2[nH]cnc12)c1ccccc1
10,233 to 235,CC(C)n1nc(-c2sc(N)nc2-c2ccccc2F)ccc1=O
11,250 to 251,CC(=O)NCc1ccn(-c2cc3c(cc2C(F)(F)F)[nH]c(=O)c(=O)n3CC(=O)O)c1
12,123 to 124,CC(C)OP(=O)(OC(C)C)c1nc(N)nc(P(=O)(OC(C)C)OC(C)C)n1
13,86 to 88,Nc1ccccc1OCCCN1CCC(OC(c2ccccc2)c2ccccc2)CC1
14,48 to 51,COC(=O)C1=C(C)NC(C)=C(C(=O)OCCCC#N)C1c1ccccc1[N+](=O)[O-] (centres undefined)
15,230 to 250,Cc1c(-c2ccc(Cl)nc2)sc2nc(N)[nH]c(=O)c12
16,190 to 192,CCOc1cc2c(Nc3ccc(OC)cc3)c(C#N)cnc2nc1C
17,177 to 178,COc1ccc(C(=O)NCCCCCCNC(=O)c2ccc(OC)cc2)cc1

row,melting point [°C],SMILES
1,183 to 184,CCN1c2ncccc2NC(=O)c2cc(CCc3ccccc3)cnc21
2,74 to 75,COc1ccc(-n2nc(OC(C)C)cc2-c2ccc(OCCO)cc2)cn1
3,90,COc1ccc(C(=O)CC(c2cccs2)C(C)(C)[N+](=O)[O-])cc1 (centres undefined)
4,139 to 140,CCN(CC)c1ccc(C2(c3c(C)n(CC)c4ccccc34)OC(=O)c3ccccc32)c(N(CC)CC)c1 (centres undefined)
5,99 to 101,c1ccc(CCCCNCCOc2cccc3[nH]ccc23)cc1
6,125 to 126,Cc1cn(C)c(CO)n1
7,198,O=C(Nc1ccc(Cl)cc1)NC(c1ccccc1)C(O)c1ccccc1 (centres undefined)
8,128 to 134,COCCN(C)Cc1ccnc2c(NC(=O)c3c(Cl)cccc3Cl)cccc12
9,58 to 61,CC(C)[C@H](NC(=O)N(C)Cc1ccccn1)C(=O)N[C@@H](Cc1ccccc1)C[C@H](O)[C@H](Cc1ccccc1)NC(=O)OCc1cccnc1
10,152 to 155,CN1CCCC1Cc1cn(Cc2ccccc2)c2ccc(C(C#N)S(=O)(=O)N(C)C(c3ccccc3)c3ccccc3)cc12 (centres undefined)
11,103 to 106,COC(=O)CCCC#Cc1cc(Cl)ccc1NS(=O)(=O)c1ccc2nc(C)sc2c1
12,248 to 249,COc1ccc2[nH]c(=O)nc(C)c2c1OC
13,42.4 to 43.8,Cc1nc(Cl)c2c3c(oc2n1)CCCC3
14,85 to 89,CN(C)CC1CNc2ccccc2C1 (centres undefined)
15,63 to 65,CC(CSSc1nc2ccccc2s1)SSc1nc2ccccc2s1 (centres undefined)
16,147 to 149,COC(=O)C(O)C(NCc1ccccc1)c1ccc([N+](=O)[O-])cc1 (centres undefined)
